Assay results taken from ChEMBL document CHEMBL5316313, “Discovery of Novel 3-Phenylpiperidine Derivatives Targeting the β-Catenin/B-Cell Lymphoma 9 Interaction as a Single Agent and in Combination with the Anti-PD-1 Antibody for the Treatment of Colorectal Cancer” (J Med Chem, 2023).
Active and inactive are the calls of the source. The calls are words filed in the database; no cut-off is given here.

Tests used:
CT26 [1] = test: cells; conditions: Mus musculus, CT26, 48 h
[2] = Toxicity in BALB/c mouse xenografted with mouse CT26 cells assessed as adverse effect at 30 mg/kg, ip QD and measured upto 9 days; type: organism-based; conditions: in vivo, 216 h, time < 9 day
CT26 [3] = test: Synergistic antitumor activity in mouse CT26 cells xenografted in BALB/c mouse assessed as increase in IFNgamma-positive CD8+ T cell infiltration into tumor at 30 mg/kg, ip QD in presence of anti-PD-1 antibody cotreatment at 10 mg/kg,ip BIW by flow cytometry; type: functional, organism-based
CT26 [4] = test: Antitumor activity in mouse CT26 cells xenografted in BALB/c mouse assessed as increase in Cd8 mRNA expression level in tumor at 30 mg/kg, ip QD by qRT-PCR analysis; type: functional, organism-based
[5] = Toxicity in BALB/c mouse xenografted with mouse CT26 cells assessed as pathological changes in liver at 30 mg/kg, ip QD in presence of anti-PD-1 antibody cotreatment at 10 mg/kg,ip BIW by hematoxylin and eosin staining based microscopic analysis; type: organism-based; conditions: in vivo
CT26 [6] = test: Antitumor activity in mouse CT26 cells xenografted in BALB/c mouse assessed as increase in IFNgamma-positive CD8+ T cell infiltration into tumor at 30 mg/kg, ip QD by flow cytometry; type: functional, organism-based
CT26 [7] = test: Induction of apoptosis in Wnt-dependent mouse CT26 cells assessed as necrotic cells at 10 uM incubated for 24 hrs by Annexin V-Alexa Fluor 647/PI staining based flow cytomtery (Rvb=1.04%); type: functional
[8] = Microsomal stability in mouse liver microsomes assessed as half life at […] and measured upto 60 mins by LC-MS/MS analysis; type: ADME, Microsome
HCT-116 = test: Induction of apoptosis in Wnt-dependent human HCT-116 cells assessed as necrotic cells at 10 uM incubated for 24 hrs by Annexin V-Alexa Fluor 647/PI staining based flow cytomtery (Rvb=1.47%); type: functional
EL4 = test: Cytotoxicity against CFSE labeled SIINFEKL activated OT-1 mouse derived EL4 cells assessed as change in antigen specific cell viability at 1 to 10 uM preincubated with compound for 24 hrs followed by co-cultured with C57BL/6 mouse splenocyte derived CD8+ T cells in presence of anti-PD-1 antibody cotreatment by flow cytometry; type: functional, cell-based; conditions: dose 1-10 µM
CT26 [9] = test: Synergistic antitumor activity in mouse CT26 cells xenografted in BALB/c mouse assessed as increase in GZMB mRNA expression level in tumor at 30 mg/kg, ip QD in presence of anti-PD-1 antibody cotreatment at 10 mg/kg,ip BIW by qRT-PCR analysis; type: functional, organism-based

## CC(C)c1ccc(-c2cccc(S(=O)(=O)N3CCCC(c4cccc(OC(C)(C)C(=O)NS(=O)(=O)c5ccc(C(F)(F)F)cc5)c4)C3)c2)cc1 (stereo unspecified)
CT26 [1]
  IC50: 69.7 µM
[2]
  Activity: Non-Toxic
CT26 [3]
  Activity: Active
CT26 [4]
  Activity: Active
[5]
  Activity: Non-Toxic
CT26 [6]
  Activity: Active
CT26 [7]
  Activity: 1.91%
[8]
  half-life: 20.9 min
HCT-116
  Activity: 2%
EL4
  Activity: Dose-Dependent Effect
CT26 [9]
  Activity: Active
